Assay results taken from US12453731B2, “Aniline-based WDR5 protein-protein interaction inhibitor, and preparation method and use thereof” (CHINA PHARMACEUTICAL UNIVERSITY, priority 2019, dated 2025).
Like-named read-outs stand apart in the source and are kept apart here.

How the values were obtained:
[1] = tested on: MV4-11 human acute mononuclear leukemia cells; experiment: anti-proliferative activity against leukemia cells MV4-11; type: cell-based; conditions: read-out: GI50 (MV-411)
Excerpt: (§1) Some compounds of the present disclosure have also been tested for the antiproliferative activity against leukemia cells.

[2] = tested on: methylation level of H3K4; experiment: inhibition of the methylation level of H3K4 (methyltransferase activity); type: biochemical
MLL1-WDR5 PPI = MLL1-WDR5 PPI (Homo sapiens (Human), UniProt P61964); experiment: fluorescent probe assay of MLL1-WDR5 protein-protein interaction inhibition; type: binding; conditions: fluorescent probe based on MLL1 peptide, incubation 0.5 hrs, read-out: MLL1-WDR5 PPI inhibiting activity IC50
Procedure: In the present disclosure, a fluorescent molecular probe was constructed based on a MLL1 peptide fragment binding to WDR5, for use as a method for study on an aniline compound interfering with WDR5 protein-protein interaction, to determine an inhibition rate of the aniline compound at various concentrations, and then compute the IC50 value. Specific experimental steps: 20 μL of WDR5 protein, 20 μL of a fluorescent probe, and 20 μL of a compound of different concentration gradients were added to a 384-well plate respectively. After incubation for 0.5 hrs, the fluorescence was read on a multifunctional microplate reader at an excitation wavelength of 485 nm and an emission wavelength of 535 nm, to compute the mP value. The inhibition rate was computed as per the formula below, and then the IC50 value was computed using GraphPad software.

[3] = tested on: Molm-13 human acute myeloid leukemia cells; experiment: anti-proliferative activity against leukemia cells Molm-13; type: cell-based
Excerpt: as §1

[4] = Homo sapiens, MV4-11, MV4-11 cells
[5] = Homo sapiens, MOLM-13, Molm-13 cells

Structure (SMILES) | Whether the methylation level of H3K4 was inhibited [2] | IC50 (MLL1-WDR5 PPI) | GI50 [1, 4] | GI50 [3, 5] | GI50 ([3]; Molm-13 cells) | GI50 ([1]; MV4-11 cells)
Cc1c(F)c(N)cc(C(=O)Nc2cc(-c3ccc(N)cc3)ccc2N2CCN(C)CC2)c1Cl [DDO-2084, reference compound] | Yes | 338 µM | – | – | – | 17.7 ± 2.3 µM
CN1CCN(c2ccc(-c3ccc(C(=O)N4CCOCC4)cc3)cc2Nc2ncnc(Cl)c2N)CC1 [Example 23, (3″-((5-amino-6-chloropyrimidin-4-yl)amino)-4-(4-methylpiperazin-1-yl)-[1,1′-biphenyl]-4-yl)(morpholino)methanone] | Yes | 0.186 µM | 16.7 µM | 23.4 µM | – | –
CN1CCN(c2ccc(-c3ccc(C(=O)NCCCN4CCOCC4)cc3)cc2Nc2ncnc(Cl)c2N)CC1 [Example 25, 3″-((5-amino-6-chloropyrimidin-4-yl)amino)-4″-(4-methylpiperazin-1-yl)-N-(3-morpholinopropyl)-[1,1′-biphenyl]-zole-4-carboxamide] | Yes | 0.165 µM | 24.9 µM | 20.8 µM | – | –
CN1CCN(C(=O)c2ccc(-c3ccc(N4CCN(C)CC4)c(Nc4ncnc(Cl)c4N)c3)cc2)CC1 [Example 27, (3″-((5-amino-6-chloropyrimidin-4-yl)amino)-4″-(4-methylpiperazin-1-yl)-[1,1′-biphenyl]-4-yl)(4-methylpiperazin-1-yl) methanone] | Yes | 0.217 µM | 39.2 µM | 34 µM | – | –
CN(C)CCCNC(=O)c1ccc(-c2ccc(N3CCN(C)CC3)c(Nc3ncnc(Cl)c3N)c2)cc1 [Example 28, 3″-((5-amino-6-chloropyrimidin-4-yl)amino)-N-(3-(dimethylamino)propyl)-4″-(4-methylpiperazin-1-yl)-[1,1′-biphenyl]-4-carboxamide] | Yes | 0.27 µM | 29.7 µM | 24.3 µM | – | –
CN1CCN(c2ccc(-c3ccc(C(=O)NCCCO)cc3)cc2Nc2ncnc(Cl)c2N)CC1 [Example 30, 3″-((5-amino-6-chloropyrimidin-4-yl)amino)-N-(3-hydroxylpropyl)-4″-(4-methylpiperazin-1-yl)-[1,1′-biphenyl]-zole-4-carboxamide] | Yes | 0.31 µM | 27.3 µM | 32.6 µM | – | –
CN1CCN(c2ccc(-c3cncnc3)cc2Nc2ncnc(Cl)c2N)CC1 [Example 44, 6-chloro-N^4-(2-(4-methylpiperazin-1-yl)-5-(pyrimidine-5-yl)phenyl)pyrimidine-4,5-diamine] | – | 5.71 µM | – | – | – | –
CN1CCN(c2ccc(-n3cc(C(=O)NCCCN4CCOCC4)nn3)cc2Nc2ncnc(Cl)c2N)CC1 [Example 48, 1-(3-((5-amino-6-chloropyrimidin-4-yl)amino)-4-(4-methylpiperazin-1-yl)phenyl)-N-(3-morpholinopropyl)-1H-1,2,3-triazole-4-carboxamide] | – | 1.09 µM | – | – | – | –
CN(C)CCNC(=O)c1cn(-c2ccc(N3CCN(C)CC3)c(Nc3ncnc(Cl)c3N)c2)nn1 [Example 52, 1-(3-((5-amino-6-chloropyrimidin-4-yl)amino)-4-(4-methylpiperazin-1-yl)phenyl)-N-(2-(dimethylamino)ethyl)-1H-1,2,3-triazole-4-carboxamide] | – | 1.56 µM | – | – | – | –
Cc1c(-c2ccc(C(=O)N(C)C)cc2)ccc(N2CCN(C)CC2)c1Nc1ncnc(Cl)c1N [Example 65, 3″-((5-amino-6-chloropyrimidin-4-yl)amino)-N,N,2′-trimethyl-4″-(4-methylpiperazin-1-yl)-[1,1′-biphenyl]-4-carboxamide] | – | 0.671 µM | – | – | – | –
COC(=O)c1ccc(-c2cc(Nc3ncnc(Cl)c3N)c(N3CCN(C)CC3)cc2C)cc1 [Example 73, Methyl 5′-((5-amino-6-chloropyrimidin-4-yl)amino)-2′-methyl-4′-(4-methylpiperazin-1-yl)-[1,1′-biphenyl]-4-carboxylate] | Yes | 0.316 µM | – | – | – | –
Cc1cc(N2CCN(C)CC2)c(Nc2ncnc(Cl)c2N)cc1-c1ccc(C(=O)NCCCN2CCOCC2)cc1 [Example 74, 5″-((5-amino-6-chloropyrimidin-4-yl)amino)-2′-methyl-4″-(4-methylpiperazin-1-yl)-N-(3-morpholinopropyl)-[1,11,1′-terphenyl]-4-carboxamide] | Yes | 0.465 µM | – | – | – | –

Second part, led by results:

Whether the methylation level of H3K4 was inhibited [2] | IC50 (MLL1-WDR5 PPI) | GI50 [1, 4] | GI50 [3, 5] | GI50 ([3]; Molm-13 cells) | Structure (SMILES) | GI50 ([1]; MV4-11 cells)
– | 10.3 µM | – | – | – | CN1CCN(c2ccc([N+](=O)[O-])cc2Nc2cc(Cl)ncn2)CC1 [Example 2, 6-chloro-N-(2-(4-methylpiperazin-1-yl)-5-nitrophenyl)pyrimidine-4-amine] | –
– | 2.66 µM | – | – | – | CN1CCN(c2ccc([N+](=O)[O-])cc2Nc2ncnc(Cl)c2N)CC1 [Example 7, 6-chloro-N^4-(2-(4-methylpiperazin-1-yl)-5-nitrophenyl)pyrimidine-4,5-diamine] | –
Yes | 0.183 µM | 11 µM | 17.6 µM | – | CN1CCN(c2ccc(-c3ccc(C(=O)NCCN4CCOCC4)cc3)cc2Nc2ncnc(Cl)c2N)CC1 [Example 24, 3″-((5-amino-6-chloropyrimidin-4-yl)amino)-4″-(4-methylpiperazin-1-yl)-N-(2-morpholinoethyl)-[1,1′-biphenyl]-zole-4-carboxamide] | –
Yes | 0.36 µM | 48.6 µM | 30.7 µM | – | CN1CCN(c2ccc(-c3ccc(C(=O)N(C)C)cc3)cc2Nc2ncnc(Cl)c2N)CC1 [Example 26, 3″-((5-amino-6-chloropyrimidin-4-yl)amino)-N,N-dimethyl-4″-(4-methylpiperazin-1-yl)-[1,1′-biphenyl]-4-carboxamide] | –
Yes | 0.37 µM | 16.6 µM | 18.2 µM | – | CN1CCN(c2ccc(-c3ccc(C(=O)NCCN4CCCC4)cc3)cc2Nc2ncnc(Cl)c2N)CC1 [Example 29, 3″-((5-amino-6-chloropyrimidin-4-yl)amino)-4″-(4-methylpiperazin-1-yl)-N-(2-(pyrrolidin-1-yl)ethyl)-[11,1′-biphenylyl]-4-carboxamide] | –
Yes | 5.55 µM | – | – | – | CN1CCN(c2ccc(-c3ccc(NC(=O)c4ccccc4)cc3)cc2Nc2ncnc(Cl)c2N)CC1 [Example 37, N-(3″-((5-amino-6-chloropyrimidin-4-yl)amino)-4″-(4-methylpiperazin-1-yl)-[1,1′-biphenyl]-4-yl)benzenecarboxamide] | –
– | 1.56 µM | – | – | – | COc1ccc(-c2ccc(N3CCN(C)CC3)c(Nc3ncnc(Cl)c3N)c2)cc1 [Example 42, 6-chloro-N-(4′-methoxyl-4-(4-methylpiperazin-1-yl)-[1,1′-biphenyl]-3-yl)pyrimidine-4,5-diamine] | –
– | 11.4 µM | – | – | – | CN1CCN(c2ccc(-c3ccoc3)cc2Nc2ncnc(Cl)c2N)CC1 [Example 43, 6-chloro-N^4-(5-(furan-3-yl)-2-(4-methylpiperazin-1-yl)phenyl)pyrimidine-4,5-diamine] | –
– | 0.56 µM | 27.3 µM | 23.2 µM | – | CN1CCN(c2ccc(-c3ccncc3)cc2Nc2ncnc(Cl)c2N)CC1 [Example 45, 6-chloro-N^4-(2-(4-methylpiperazin-1-yl)-5-(pyridin-4-yl)phenyl)pyrimidine-4,5-diamine] | –
– | 1.25 µM | – | – | – | CN1CCN(C(=O)c2cn(-c3ccc(N4CCN(C)CC4)c(Nc4ncnc(Cl)c4N)c3)nn2)CC1 [Example 49, (1-(3-((5-amino-6-chloropyrimidin-4-yl)amino)-4-(4-methylpiperazin-1-yl)phenyl)-1H-1,2,3-triazole-4-yl)(4-methylpiperazin-1-yl)methanone] | –
Yes | – | 29.6 µM | 35.5 µM | – | CN1CCN(c2ccc(-n3cc(C(=O)N(C)C)nn3)cc2Nc2ncnc(Cl)c2N)CC1 [Example 50, 1-(3-((5-amino-6-chloropyrimidin-4-yl)amino)-4-(4-methylpiperazin-1-yl)phenyl)-N,N-dimethyl-1H-1,2,3-triazole-4-carboxamide] | –
Yes | – | – | – | 39 µM | CN1CCN(c2ccc(-n3cc(C(=O)N(C)C)nn3)cc2Nc2ncnc(Cl)c2N)CC1 [Example 51, 1-(3-((5-amino-6-chloropyrimidin-4-yl)amino)-4-(4-methylpiperazin-1-yl)phenyl)-N,N-dimethyl-1H-1,2,3-triazole-4-carboxamide] | 38 µM
– | 1.61 µM | – | – | – | CN1CCN(c2ccc(-n3cc(C(=O)NCCN4CCCC4)nn3)cc2Nc2ncnc(Cl)c2N)CC1 [Example 53, 1-(3-((5-amino-6-chloropyrimidin-4-yl)amino)-4-(4-methylpiperazin-1-yl)phenyl)-N-(2-(pyrrolidin-1-yl)ethyl)-1H-1,2,3-triazole-4-carboxamide] | –
Yes | 0.04 µM | 14.4 µM | – | – | COC(=O)c1ccc(-c2cc(Nc3ncnc(Cl)c3N)c(N3CCN(C)CC3)cc2F)cc1 [Example 66, Methyl 5′-((5-amino-6-chloropyrimidin-4-yl)amino)-2′-fluoro-4′-(4-methylpiperazin-1-yl)-[1,1′-biphenyl]-4-carboxylate] | –
